Experimental data from publication PMC12909347, “Disconnect between in vitro and in vivo efficacy of the MPS1 inhibitor NTRC 0066-0 against glioblastoma” (Cellular Oncology, 2026).

Columns and labels:
MPS1 = system: MPS1; set-up: method as in PMID 23940287; details: reported; cited from earlier work
[1] = system: orthotopic E98 GBM tumors; assay: Orthotopic E98 GBM xenograft efficacy in Abcb1a/b;Abcg2-/- mice; assay type: in vivo; details: TMZ + RT given at tumor size 10^7-10^8 p/s
Method: Orthotopic GBM tumors were induced in Abcb1a/b; Abcg2^−/− mice by stereotactic injection of E98 cells expressing firefly luciferase (200,000 cells in 2 µL HBSS (Life Technologies) at an injection speed of 1 µL/min) at 2 mm lateral, 1 mm anterior and 3 mm ventral to the bregma. Tumor growth was monitored using bioluminescence imaging by injecting D-luciferin (150 mg/kg i.p.; Promega, Madison, WI) and subsequently imaging mice on an IVIS Spectrum Imaging System (PerkinElmer, Waltham, MA). Survival was monitored daily and the humane endpoint was defined as body weight loss exceeding 20%. Time-to-recurrence was defined as the number of days elapsed until the tumor regained its pre-treatment size. Tumors were treated with CT-guided radiotherapy (2–3.5 Gy per fraction) using an X-RAD 225Cx system (Precision X-Ray, North Branford, CT), temozolomide (10 mg/kg p.o. freshly prepared from powder in an aqueous solution containing 10% v/v ethanol), NTRC0066-0 (20, 10 or 5 mg/kg p.o. in an aqueous solution containing 10% v/v DMSO and 10% v/v Cremophor EL (Life Technologies)) or different combinations thereof, as described per experiment in the Figure legends.

Row | Structure (SMILES) | IC50s (intrinsic potency) (MPS1) | Tumor bioluminescence signal after regression [1]
1 | COc1cc(N2CCC(O)CC2)ccc1Nc1nc(Nc2ccccc2S(=O)(=O)C(C)C)c2[nH]cnc2n1 [MPS1-IN-3] | micromolar range | 
2 | Cn1nnc2c(C(N)=O)ncn2c1=O [TMZ, temozolomide, reference compound] |  | about 10^5 p/s
